Reference: PubChem BioAssay AID2060495 (Molecular Pharmacology Branch, DTP, NCI, 2025)
Where “and” joins values, the source holds several entries; their conditions need not be identical. Equal values may be shown once.

System: 521955-158-R2-J5-PDC complex spheroid viability
Assay: Anticancer human tumor 521955-158-R2-J5-PDC patient-derived pancreatic carcinoma cell line growth inhibition [GQUAD]
Conditions: for viability, T/C: stronger effect = lower value
Description: DNA G-quadruplex Stabilizer Agents in Combinations in Complex Spheroids
A high-throughput screen of multi-cell type tumor spheroids was designed to identify active combinations of DNA G-quadruplex stabilizer agents and targeted small molecules. Complex spheroids include a stromal component modeled by human endothelial cells (HUVEC) and fibroblasts modeled by human mesenchymal stem cells (MSCs). The concentration ranges selected for each drug and investigational agent were based upon clinically achievable concentrations if the clinical Cmax of the agent was known.
Compounds. The drugs and investigational agents: pidnarulex (CX-5461; NSC782164), APTO-253 (NSC789042), BRACO-19 (NSC847499), peposertib (NSC802822), ceralasertib (NSC780249), elimusertib (NSC800525), camonsertib (NSC841442), AZD-1390 (NSC803789), olaparib (NSC753686), talazoparib (NSC767125), ART-558 (NSC835418), sotorasib (NSC818433), MRTX-1133 (NSC836407), SN-38 (NSC673596), topotecan (NSC609699), etoposide (NSC141540), doxorubicin (NSC123127), gemcitabine (NSC613327), 5-fluorouracil (NSC19893), paclitaxel (NSC125973), vemurafenib (NSC761431), panobinostat (NSC761190), R-306465 (JNJ-16241199; NSC773264), adavosertib (NSC754352), TP-3654 (NSC805149), carboplatin (NSC241240), KSQ-4279 (NSC840948), and staurosporine (NSC755774) were obtained from the National Cancer Institute (NCI) Developmental Therapeutics Program Chemical Repository (34). The FDA-approved anticancer drug set is available from the NCI Developmental Therapeutics Program. […] The stock solutions were prepared in dimethyl sulfoxide (DMSO, Sigma-Aldrich, St. Louis, MO, cat. D2650) at 800-fold the tested concentration and stored at -70 degrees C prior to their use. All drugs and investigational agents were tested over a range starting from a high concentration at or near the clinical Cmax and decreasing in half-log increments. If the clinical Cmax for an agent had not been determined, the highest concentration tested was 10 microM.
2.3 Cell Culture. All cells were maintained in an incubator at 37 degrees C and 5% CO2 with 95% humidity. The PDC lines were cultured according to standard operating procedures established by the NCI PDMR. All PDCs were thawed and cultured in Matrigel-coated flasks prepared with a working solution of 1X Ham's F-12 nutrient mix, without supplementation (Invitrogen, cat. 11765054), 100 U/mL penicillin-streptomycin (Invitrogen, cat. 15140122), and 2.5% Matrigel (Corning Inc., cat. 354248) for the first three passages. The 857933-349-R-J2-PDC line was cultured in 6C/Colon 1B media, which includes advanced DMEM/F-12 (Thermo Fisher Scientific, cat. 12634028), 10 mM HEPES (Thermo Fisher Scientific, cat. 15630080), 1X GlutaMAX supplement (Thermo Fisher Scientific, cat. 35050061), 0.1 mg/mL primocin (InvivoGen, cat. ant-pm-2), 10% defined fetal bovine serum, heat inactivated (HyClone Laboratories Inc., cat. SH30070.03HI), 50% L-WRN conditioned media (ATCC, cat. CRL-3276), 1.25 mM N-Acetyl-L-cysteine (Sigma-Aldrich, cat. A9165), 10 mM nicotinamide (Sigma-Aldrich, cat. N0636), 1X B-27 supplement (Thermo Fisher Scientific, cat. 17504044), 1X N-2 supplement (Thermo Fisher Scientific, cat. 17502048), 10 microM Y-27632 dihydrochloride (Tocris Bioscience, cat. 1254), and 50 ng/mL human EGF recombinant protein (Thermo Fisher Scientific, cat. PHG0311). The 485176-168-R4-J1-PDC line was cultured in Panc media, which includes all 6C/Colon 1B media components plus 100 ng/mL human FGF-10 (Thermo Fisher Scientific, cat. 100-26), 500 nM SB-431542 (Selleckchem, cat. S1067), and gastrin (Tocris, cat. 3006).
[…]

[1] = compound alone, run of 04/16/2024
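Also: spheroids exposed to agents for one week before reading.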
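For viability, T/C in this document: 100% = DMSO vehicle control viability.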

In the case of `COc1cc(C2c3cc4c(cc3C(OC3OC5COC(C)OC5C(O)C3O)C3COC(=O)C23)OCO4)cc(OC)c1O` (centres undefined), the viability, T/C (compound 0.0316 µM) is reported as 95.5% and 105% and 91.1%, the viability, T/C (compound 0.1 µM) is reported as 66.3% and 70.6% and 95% and the viability, T/C (compound 0.316 µM) is reported as 79.4% and 67% and 81.2%. For the same molecule, the viability, T/C (compound 1 µM) was 29% and 29.6% and 53.9%, the viability, T/C (compound 3.16 µM) was 14.7% and 15.7% and 30.7% and the viability, T/C (compound 10 µM) was 10.9% and 9.42% and 17.9%. For the same molecule, the IC50 (curve of compound) was 616 nM and 427 nM and 1250 nM.
With `COc1ccc([C@@H](O)c2cc(-c3ncnc4cc(N5CCOCC5)ccc34)c(F)cc2Cl)nn1` the viability, T/C (compound 0.0316 µM) was 88.1% and 109% and 104%, the viability, T/C (compound 0.1 µM) was 87% and 96.8% and 88.3% and the viability, T/C (compound 0.316 µM) was 83.3% and 97% and 86.6%. For the same molecule, the viability, T/C (compound 1 µM) was 63.6% and 77.3% and 58.9%, the viability, T/C (compound 3.16 µM) was 50.2% and 64.8% and 50.8% and the viability, T/C (compound 10 µM) was 38% and 42.1% and 40.9%. For the same molecule, the IC50 (curve of compound) was 2810 nM and 6670 nM and 2890 nM.
`COc1cccc2c1C(=O)c1c(O)c3c(c(O)c1C2=O)CC(O)(C(=O)CO)CC3OC1CC(N)C(O)C(C)O1` (centres undefined) was tested, and the viability, T/C (compound 0.0316 µM) was 97.9% and 93.8% and 88.4%, the viability, T/C (compound 0.1 µM) was 57.4% and 74.5% and 45% and the viability, T/C (compound 0.316 µM) was 34.3% and 31.6% and 30.2%. The viability, T/C (compound 1 µM) was 13.4% and 43% and 12.5%, the viability, T/C (compound 3.16 µM) was 4.07% and 4.69% and 3.22% and the viability, T/C (compound 10 µM) was 1.01% and 2.64% and 0.42%. For the same molecule, the IC50 (curve of compound) was 145 nM and 254 nM and 96.7 nM.
With `COc1ncnc(C2CC2)c1-c1ncc2cnn(Cc3ccc(-c4nc(C(F)(F)F)cn4C(C)C)cc3)c2n1` the viability, T/C (compound 0.0316 µM) was 116% (2×) and 103%, the viability, T/C (compound 0.1 µM) was 88.7% and 102% and 106% and the viability, T/C (compound 0.316 µM) was 105% and 113% and 124%. For the same molecule, the viability, T/C (compound 1 µM) was 85% and 107% and 113%, the viability, T/C (compound 3.16 µM) was 116% and 114% and 132% and the viability, T/C (compound 10 µM) was 124% and 108% and 134%. For the same molecule, the IC50 (curve of compound) was greater than 10000 nM.
`Cc1[nH]c2ccc(F)cc2c1-c1nc2c3cccnc3c3ncccc3c2[nH]1` was tested, and the viability, T/C (compound 0.0316 µM) was 106% [middle of 12 runs], the viability, T/C (compound 0.1 µM) was 100% [middle of 12 runs] and the viability, T/C (compound 1 µM) was 102% [middle of 12 runs]. The viability, T/C (compound 10 µM) was 89.7% [middle of 12 runs], the IC50 [1] was greater than 10000 nM and the IC50 (compound alone, run of 04/22/2024) was greater than 10000 nM.
`Cc1[nH]c2ccccc2c1CCNCc1ccc(/C=C/C(=O)NO)cc1` was tested, and the viability, T/C (compound 0.000999 µM) was 110% and 125% and 100%, the viability, T/C (compound 0.00316 µM) was 103% and 117% and 100% and the viability, T/C (compound 0.00999 µM) was 139% and 135% and 112%. The viability, T/C (compound 0.0316 µM) was 103% and 110% and 102%, the viability, T/C (compound 0.0999 µM) was 55.7% and 53.2% and 51% and the viability, T/C (compound 0.316 µM) was 20.8% and 22.1% and 11.1%. For the same molecule, the IC50 (curve of compound) was 118 nM and 111 nM and 103 nM.
In the case of `Cc1cccc(N(C)C(=O)C2C(O)CCN2c2nc(C)cc(C(F)(F)F)c2C#N)c1` (centres undefined), the viability, T/C (compound 0.0316 µM) is reported as 120% and 113% and 96.8%, the viability, T/C (compound 0.1 µM) is reported as 86.4% and 98.3% and 105% and the viability, T/C (compound 0.316 µM) is reported as 90% and 104% and 107%. For the same molecule, the viability, T/C (compound 1 µM) was 98.8% and 98.2% and 100%, the viability, T/C (compound 3.16 µM) was 120% and 115% and 123% and the viability, T/C (compound 10 µM) was 118% and 110% and 140%. For the same molecule, the IC50 (curve of compound) was greater than 10000 nM.
`Cc1cnc(CNC(=O)c2c(=O)c3ccc(N4CCCN(C)CC4)nc3n3c2sc2ccccc23)cn1` was tested, and the viability, T/C (compound 0.0316 µM) was 79.7% [middle of 12 runs], the viability, T/C (compound 0.316 µM) was 38.2% [middle of 12 runs] and the viability, T/C (compound 1 µM) was 22.1% [middle of 12 runs]. The viability, T/C (compound 3.16 µM) was 20.7% [middle of 12 runs], the viability, T/C (compound 10 µM) was 18.8% [middle of 12 runs] and the IC50 [1] was 137 nM [middle of 11 runs].
With `Cn1ncnc1[C@H]1c2n[nH]c(=O)c3cc(F)cc(c23)N[C@@H]1c1ccc(F)cc1` the viability, T/C (compound 0.000999 µM) was 94.9% and 94.7% and 84.8%, the viability, T/C (compound 0.00316 µM) was 81.5% and 95.2% and 80.6% and the viability, T/C (compound 0.00999 µM) was 92.4% and 99.2% and 79.1%. The viability, T/C (compound 0.0316 µM) was 78.9% and 94.1% and 78.3%, the viability, T/C (compound 0.0999 µM) was 86.8% and 89.5% and 85.8% and the viability, T/C (compound 0.316 µM) was 60.1% and 87.9% and 72.1%. For the same molecule, the IC50 (curve of compound) was greater than 316 nM.
With `Nc1ccn(C2OC(CO)C(O)C2(F)F)c(=O)n1` (centres undefined) the viability, T/C (compound 0.0316 µM) was 95.8% and 80% and 84.4%, the viability, T/C (compound 0.1 µM) was 86% and 65.7% and 69.4% and the viability, T/C (compound 0.316 µM) was 75.9% and 57.5% and 71%. For the same molecule, the viability, T/C (compound 1 µM) was 17% and 46.2% and 22.6%, the viability, T/C (compound 3.16 µM) was 9.14% and 18.9% and 7.37% and the viability, T/C (compound 10 µM) was 8.29% and 13.5% and 6.71%. For the same molecule, the IC50 (curve of compound) was 524 nM and 534 nM and 518 nM.
In the case of `O=C(NO)c1cnc(N2CCN(S(=O)(=O)c3ccc4ccccc4c3)CC2)nc1`, the viability, T/C (compound 0.0316 µM) is reported as 120% and 129% and 128%, the viability, T/C (compound 0.1 µM) is reported as 106% and 103% and 98.8% and the viability, T/C (compound 0.316 µM) is reported as 97.3% and 66.4% and 48.3%. For the same molecule, the viability, T/C (compound 1 µM) was 42.6% and 28.9% and 15%, the viability, T/C (compound 3.16 µM) was 0.27% and 0.42% and 0.06% and the viability, T/C (compound 10 µM) was 0.25% and 0.27% and 0.09%. The IC50 (curve of compound) was 838 nM and 501 nM and 307 nM.
In the case of `O=C(c1cc(Cc2n[nH]c(=O)c3ccccc23)ccc1F)N1CCN(C(=O)C2CC2)CC1`, the viability, T/C (compound 0.0316 µM) is reported as 96.2% and 106% and 90.6%, the viability, T/C (compound 0.1 µM) is reported as 93.6% and 88.4% and 70.8% and the viability, T/C (compound 0.316 µM) is reported as 85.3% and 86.5% and 89.5%. For the same molecule, the viability, T/C (compound 1 µM) was 65.6% and 88% and 66.8%, the viability, T/C (compound 3.16 µM) was 89.8% and 92.1% and 83.6% and the viability, T/C (compound 10 µM) was 91.2% and 81.6% and 80.2%. It also gave an IC50 (curve of compound) greater than 10000 nM.
In the case of `O=c1[nH]cc(F)c(=O)[nH]1`, the viability, T/C (compound 0.0316 µM) is reported as 86.1% and 107% and 116%, the viability, T/C (compound 0.1 µM) is reported as 86% and 88.3% and 87.4% and the viability, T/C (compound 0.316 µM) is reported as 89.2% and 109% and 92.6%. For the same molecule, the viability, T/C (compound 1 µM) was 80% and 99% and 101%, the viability, T/C (compound 3.16 µM) was 47.1% and 45% and 102% and the viability, T/C (compound 10 µM) was 20.3% and 18.2% and 54.8%. For the same molecule, the IC50 (curve of compound) was 2850 nM and 2840 nM and > 10000 nM.
